Measurements from patent US20250197406A1, “INDAZOLES AS HEMATOPOIETIC PROGENITOR KINASE 1 (HPK1) INHIBITORS AND METHODS FOR USING SAME” (1ST Biotherapeutics, Inc., priority 2022, published 2025).
Counter-ions that a name gives are not always drawn.

Molecular target: recombinant human HPK1 (Homo sapiens (Human), UniProt Q92918)
Assay: HPK1 kinase assay (Promega ADP-Glo kinase assay)
Type: biochemical
Details: In vitro activity against HPK1, 5 ng HPK1, MBP substrate, ATP 25 μM, 30° C. 40 minutes
Outline: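 ADP-Glo luminescence assay with 5 ng recombinant human HPK1, MBP substrate and ATP (added as 25 µM solution) in Tris pH 7.5, 20 mM MgCl2, BSA, DTT, 0.5% DMSO. Reaction ran 40 min at 30 °C. IC50 was fitted from percent inhibition over an inhibitor concentration range.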

Chain of recombinant human HPK1 (Q92918 whole entry): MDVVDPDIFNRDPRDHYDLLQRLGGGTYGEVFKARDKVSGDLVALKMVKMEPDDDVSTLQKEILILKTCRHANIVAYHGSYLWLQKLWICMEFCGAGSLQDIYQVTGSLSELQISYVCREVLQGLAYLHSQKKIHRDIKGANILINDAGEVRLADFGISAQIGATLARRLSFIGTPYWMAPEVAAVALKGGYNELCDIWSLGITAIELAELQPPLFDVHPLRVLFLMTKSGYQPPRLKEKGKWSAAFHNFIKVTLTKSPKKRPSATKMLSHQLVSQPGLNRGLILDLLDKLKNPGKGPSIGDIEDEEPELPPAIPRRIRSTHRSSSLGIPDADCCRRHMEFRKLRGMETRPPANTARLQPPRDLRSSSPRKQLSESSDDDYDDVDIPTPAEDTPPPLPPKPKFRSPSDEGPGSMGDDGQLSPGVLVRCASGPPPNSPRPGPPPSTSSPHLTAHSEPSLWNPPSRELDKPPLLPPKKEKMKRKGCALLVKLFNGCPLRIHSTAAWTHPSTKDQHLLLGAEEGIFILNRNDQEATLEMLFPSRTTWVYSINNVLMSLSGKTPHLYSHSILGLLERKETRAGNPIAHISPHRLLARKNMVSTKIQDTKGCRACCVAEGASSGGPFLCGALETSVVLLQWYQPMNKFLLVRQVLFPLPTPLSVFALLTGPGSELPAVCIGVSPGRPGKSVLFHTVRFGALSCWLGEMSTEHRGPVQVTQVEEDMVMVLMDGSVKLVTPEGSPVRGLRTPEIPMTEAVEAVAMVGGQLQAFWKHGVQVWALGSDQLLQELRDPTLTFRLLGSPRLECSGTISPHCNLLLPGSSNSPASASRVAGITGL

`CC(CO)c1c(F)c(C(F)(F)F)c(-c2cn3cc(NC(=O)[C@@H]4C[C@@H]4F)nc3cn2)c2cn[nH]c12` (stereo partly drawn) [Example 85, (1S,2S)-2-fluoro-N-(6-(6-fluoro-7-(1-hydroxypropan-2-yl)-5-(trifluoromethyl)-1H-indazol-4-yl)imidazo[1,2-a]pyrazin-2-yl)cyclopropane-1-carboxamide] and `CC(CN)c1c(F)c(C(F)(F)F)c(-c2cn3cc(NC(=O)[C@@H]4C[C@@H]4F)nc3cn2)c2cn[nH]c12` (stereo partly drawn) [Example 98, (1S,2S)-N-(6-(7-(1-aminopropan-2-yl)-6-fluoro-5-(trifluoromethyl)-1H-indazol-4-yl)imidazo[1,2-a]pyrazin-2-yl)-2-fluorocyclopropane-1-carboxamide formate] cannot be ordered by IC50: < 100 nM for the first, < 100 nM for the second.

`CC(N[S+]([O-])C(C)(C)C)c1c(F)c(Cl)c(-c2cn3cc(NC(=O)[C@@H]4C[C@@H]4F)nc3cn2)c2cn[nH]c12` (stereo partly drawn) [Example 86, (1S,2S)-N-(6-(7-(1-((tert-butylsulfinyl)amino)ethyl)-5-chloro-6-fluoro-1H-indazol-4-yl)imidazo[1,2-a]pyrazin-2-yl)-2-fluorocyclopropane-1-carboxamide] and `CC(N[S+]([O-])C(C)(C)C)c1c(F)c(C(F)(F)F)c(-c2cn3cc(NC(=O)[C@@H]4C[C@@H]4F)nc3cn2)c2cn[nH]c12` (stereo partly drawn) [Example 87, (1S,2S)-N-(6-(7-(1-((tert-butylsulfinyl)amino)ethyl)-6-fluoro-5-(trifluoromethyl)-1H-indazol-4-yl)imidazo[1,2-a]pyrazin-2-yl)-2-fluorocyclopropane-1-carboxamide] cannot be ordered by IC50: < 100 nM for the first, < 100 nM for the second.

`CC(C)Nc1c(F)c(Cl)c(-c2cn3cc(NC(=O)[C@@H]4C[C@@H]4C(F)F)nc3cn2)c2cn[nH]c12` [Example 88, (1R,2S)-N-(6-(5-chloro-6-fluoro-7-(isopropylamino)-1H-indazol-4-yl)imidazo[1,2-a]pyrazin-2-yl)-2-(difluoromethyl)cyclopropane-1-carboxamide] and `CC(C)Nc1c(F)c(Cl)c(-c2cn3cc(NC(=O)[C@@H]4C[C@@H]4CF)nc3cn2)c2cn[nH]c12` [Example 94, (1R,2S)-N-(6-(5-chloro-6-fluoro-7-(isopropylamino)-1H-indazol-4-yl)imidazo[1,2-a]pyrazin-2-yl)-2-(fluoromethyl)cyclopropane-1-carboxamide] cannot be ordered by IC50: < 100 nM for the first, < 100 nM for the second.

`CC(C)Nc1c(F)c(Cl)c(-c2cn3cc(NC(=O)Cc4cccnc4)nc3cn2)c2cn[nH]c12` [Example 89, N-(6-(5-chloro-6-fluoro-7-(isopropylamino)-1H-indazol-4-yl)imidazo[1,2-a]pyrazin-2-yl)-2-(pyridin-3-yl)acetamide] and `Cc1c(F)c(NC(C)C)c2[nH]ncc2c1-c1cn2cc(NC(=O)Cc3cccnc3)nc2cn1` [Example 93, N-(6-(6-fluoro-7-(isopropylamino)-5-methyl-1H-indazol-4-yl)imidazo[1,2-a]pyrazin-2-yl)-2-(pyridin-3-yl)acetamide] cannot be ordered by IC50: < 100 nM for the first, < 100 nM for the second.

First: CC(C)Nc1c(F)c(Cl)c(-c2cn3cc(NC(=O)CN4CCOCC4)nc3cn2)c2cn[nH]c12 [Example 90, N-(6-(5-chloro-6-fluoro-7-(isopropylamino)-1H-indazol-4-yl)imidazo[1,2-a]pyrazin-2-yl)-2-morpholinoacetamide]
Second: CC(C)Nc1c(F)c(Cl)c(-c2cn3cc(N4CCOCC4)nc3cn2)c2cn[nH]c12 [Example 91, 5-chloro-6-fluoro-N-isopropyl-4-(2-morpholinoimidazo[1,2-a]pyrazin-6-yl)-1H-indazol-7-amine]
The IC50 of the first is lower: < 100 nM for the first, 501 to 1000 nM for the second. The first is the more potent here.

`CC(C)Nc1c(F)c(Cl)c(-c2cn3cc(NC(=O)N4CCN(C)CC4)nc3cn2)c2cn[nH]c12` [Example 92, N-(6-(5-chloro-6-fluoro-7-(isopropylamino)-1H-indazol-4-yl)imidazo[1,2-a]pyrazin-2-yl)-4-methylpiperazine-1-carboxamide formate] and `COC(=O)Nc1cn2cc(-c3c(Cl)c(F)c(NC(C)C)c4[nH]ncc34)ncc2n1` [Example 113, methyl (6-(5-chloro-6-fluoro-7-(isopropylamino)-1H-indazol-4-yl)imidazo[1,2-a]pyrazin-2-yl)carbamate] cannot be ordered by IC50: < 100 nM for the first, < 100 nM for the second.

`CC(C)Nc1c(F)c(Cl)c(-c2cn3cc(NC(=O)OC(C)C)nc3cn2)c2cn[nH]c12` [Example 95, isopropyl (6-(5-chloro-6-fluoro-7-(isopropylamino)-1H-indazol-4-yl)imidazo[1,2-a]pyrazin-2-yl)carbamate] and `CCOC(=O)Nc1cn2cc(-c3c(Cl)c(F)c(NC(C)C)c4[nH]ncc34)ncc2n1` [Example 114, ethyl (6-(5-chloro-6-fluoro-7-(isopropylamino)-1H-indazol-4-yl)imidazo[1,2-a]pyrazin-2-yl)carbamate] cannot be ordered by IC50: < 100 nM for the first, < 100 nM for the second.

`CC(NC=O)c1c(F)c(C(F)(F)F)c(-c2cn3cc(NC(=O)[C@@H]4C[C@@H]4F)nc3cn2)c2cn[nH]c12` (stereo partly drawn) [Example 96, (1S,2S)-2-fluoro-N-(6-(6-fluoro-7-(1-formamidoethyl)-5-(trifluoromethyl)-1H-indazol-4-yl)imidazo[1,2-a]pyrazin-2-yl)cyclopropane-1-carboxamide] and `CC(=O)NCC(C)c1c(F)c(C(F)(F)F)c(-c2cn3cc(NC(=O)[C@@H]4C[C@@H]4F)nc3cn2)c2cn[nH]c12` (stereo partly drawn) [Example 99, (1S,2S)-N-(6-(7-(1-acetamidopropan-2-yl)-6-fluoro-5-(trifluoromethyl)-1H-indazol-4-yl)imidazo[1,2-a]pyrazin-2-yl)-2-fluorocyclopropane-1-carboxamide] cannot be ordered by IC50: < 100 nM for the first, < 100 nM for the second.

`CC(C)(C)[S+]([O-])NC(c1c(F)c(C(F)(F)F)c(-c2cn3cc(NC(=O)[C@@H]4C[C@@H]4F)nc3cn2)c2cn[nH]c12)C1CC1` (stereo partly drawn) [Example 97, (1S,2S)-N-(6-(7-(((tert-butylsulfinyl)amino)(cyclopropyl)methyl)-6-fluoro-5-(trifluoromethyl)-1H-indazol-4-yl)imidazo[1,2-a]pyrazin-2-yl)-2-fluorocyclopropane-1-carboxamide] and `Cc1c(F)c(C(NC(=O)C(F)(F)F)C2CC2)c2[nH]ncc2c1-c1cn2cc(NC(=O)[C@@H]3C[C@@H]3F)nc2cn1` (stereo partly drawn) [Example 107, (1S,2S)-N-(6-(7-(cyclopropyl(2,2,2-trifluoroacetamido)methyl)-6-fluoro-5-methyl-1H-indazol-4-yl)imidazo[1,2-a]pyrazin-2-yl)-2-fluorocyclopropane-1-carboxamide] cannot be ordered by IC50: < 100 nM for the first, < 100 nM for the second.

`CSCC(=O)Nc1cn2cc(-c3c(Cl)c(F)c(NC(C)C)c4[nH]ncc34)ncc2n1` [Example 100, N-(6-(5-chloro-6-fluoro-7-(isopropylamino)-1H-indazol-4-yl)imidazo[1,2-a]pyrazin-2-yl)-2-(methylthio)acetamide] and `COCC(=O)Nc1cn2cc(-c3c(Cl)c(F)c(NC(C)C)c4[nH]ncc34)ncc2n1` [Example 109, N-(6-(5-chloro-6-fluoro-7-(isopropylamino)-1H-indazol-4-yl)imidazo[1,2-a]pyrazin-2-yl)-2-methoxyacetamide] cannot be ordered by IC50: < 100 nM for the first, < 100 nM for the second.

`CC(C)Nc1c(F)c(Cl)c(-c2cn3cc(NC4CCOC4)nc3cn2)c2cn[nH]c12` (stereo not drawn) [Example 101, 6-(5-chloro-6-fluoro-7-(isopropylamino)-1H-indazol-4-yl)-N-(tetrahydrofuran-3-yl)imidazo[1,2-a]pyrazin-2-amine] and `CC(C)Nc1c(F)c(Cl)c(-c2cn3cc(NC(=O)C4CCCO4)nc3cn2)c2cn[nH]c12` (stereo not drawn) [Example 111, N-(6-(5-chloro-6-fluoro-7-(isopropylamino)-1H-indazol-4-yl)imidazo[1,2-a]pyrazin-2-yl)tetrahydrofuran-2-carboxamide] fall in the same range of IC50: 101 to 500 nM for the first, 101 to 500 nM for the second.

First: CC(=O)N(C)c1cn2cc(-c3c(Cl)c(F)c(NC(C)C)c4[nH]ncc34)ncc2n1 [Example 102, N-(6-(5-chloro-6-fluoro-7-(isopropylamino)-1H-indazol-4-yl)imidazo[1,2-a]pyrazin-2-yl)-N-methylacetamide]
Second: CC(C)Nc1c(F)c(Cl)c(-c2cn3cc(NC(=O)CN(C)C)nc3cn2)c2cn[nH]c12 [Example 103, N-(6-(5-chloro-6-fluoro-7-(isopropylamino)-1H-indazol-4-yl)imidazo[1,2-a]pyrazin-2-yl)-2-(dimethylamino)acetamide]
The IC50 of the first is higher: 501 to 1000 nM for the first, < 100 nM for the second. The second is the more potent here.

Compared with `CC(C)Nc1c(F)c(C(F)(F)F)c(-c2cn3cc(NC(=O)[C@@H]4C[C@@H]4CO)nc3cn2)c2cn[nH]c12` [Example 104, (1R,2S)-N-(6-(6-fluoro-7-(isopropylamino)-5-(trifluoromethyl)-1H-indazol-4-yl)imidazo[1,2-a]pyrazin-2-yl)-2-(hydroxymethyl)cyclopropane-1-carboxamide], `CC(C)Nc1c(F)c(Cl)c(-c2cn3cc(NC(=O)C4CCN4)nc3cn2)c2cn[nH]c12` (stereo not drawn) [Example 108, N-(6-(5-chloro-6-fluoro-7-(isopropylamino)-1H-indazol-4-yl)imidazo[1,2-a]pyrazin-2-yl)azetidine-2-carboxamide] is higher in IC50: < 100 nM for the first, 101 to 500 nM for the second.

First: CSC(C)C(=O)Nc1cn2cc(-c3c(Cl)c(F)c(NC(C)C)c4[nH]ncc34)ncc2n1 (stereo not drawn) [Example 105, N-(6-(5-chloro-6-fluoro-7-(isopropylamino)-1H-indazol-4-yl)imidazo[1,2-a]pyrazin-2-yl)-2-(methylthio)propanamide]
Second: CC(C)Nc1c(F)c(Cl)c(-c2cn3cc(NC(=O)[C@@H](C)N(C)C)nc3cn2)c2cn[nH]c12 [Example 106, (R)-N-(6-(5-chloro-6-fluoro-7-(isopropylamino)-1H-indazol-4-yl)imidazo[1,2-a]pyrazin-2-yl)-2-(dimethylamino)propanamide]
The IC50 of the first is lower: 101 to 500 nM for the first, 501 to 1000 nM for the second.

`CCCC(=O)Nc1cn2cc(-c3c(Cl)c(F)c(NC(C)C)c4[nH]ncc34)ncc2n1` [Example 110, N-(6-(5-chloro-6-fluoro-7-(isopropylamino)-1H-indazol-4-yl)imidazo[1,2-a]pyrazin-2-yl)butyramide] and `CC(C)Nc1c(F)c(Cl)c(-c2cn3cc(NC=O)nc3cn2)c2cn[nH]c12` [Example 112, N-(6-(5-chloro-6-fluoro-7-(isopropylamino)-1H-indazol-4-yl)imidazo[1,2-a]pyrazin-2-yl)formamide] cannot be ordered by IC50: < 100 nM for the first, < 100 nM for the second.
